How the values were obtained:
Colinus virginianus = settings: chronic
Apis mellifera = settings: acute, mortality
Typhlodromus pyri = assay: LR50; higher = less toxic; settings: not reported; mortality
Tagia sp. = settings: chronic/long-term; duration: 28 days; reproduction
[1] = short-term; duration: 28 days; reproduction
Oncorhynchus mykiss = settings: acute; duration: 96 hours; mortality
Aphidius rhopalosiphi = assay: LR50; higher = less toxic; settings: not reported; mortality

O.O.[Cu] [Copper hydroxide (Cu(OH)2)]
NOEL (Colinus virginianus): 5.05 mg/kg-day | LD50 (Apis mellifera; dermal): 44.5 µg/piece | LC50 (Daphnia magna; acute, duration: 48 hours, mortality): 0.0266 µg/mL | LR50 (Typhlodromus pyri): > 14900 g/ha

[Cl][Cu][Cl] [Copper(II) chloride]
NOEC (Tagia sp.): 8.4 mg/kg | NOEC [1]: 16.2 mg/kg-day

[Cu+].[Cu+].[O-2] [Cuprous oxide]
LC50 (Oncorhynchus mykiss): 0.207 µg/mL | LR50 (Aphidius rhopalosiphi): 39200 g/ha | LR50 (Typhlodromus pyri): > 26100 g/ha

[Cl-].[Cu+2].[Cu+2].[OH-].[OH-].[OH-] [Dicopper chloride trihydroxide]
LD50 (Apis mellifera; dermal): 44.3 µg/piece | LD50 (Apis mellifera; oral, unspecified): 12.1 µg/piece | NOEC (Daphnia magna; chronic/long-term, duration: 21 days, reproduction): 0.0076 mg/L | LR50 (Typhlodromus pyri): > 14900 g/ha
